The values that follow come from patent publication US12575568B2, “Composition for promoting the growth of legumes” (CH BIOTECH R&D CO., LTD., priority 2022, dated 2026).

Structures are written as SMILES.

Type in all cases: in vivo, Alfalfa (Medicago sativa L.)
In test [1] the test system is alfalfa plants. Put plainly: Example 3 nitrogen content of alfalfa leaves. The conditions noted are these: 12 days after application; Groups 4-6 Rhizobium inoculated; p<0.001. How it is done:
(§1) Alfalfa (Medicago sativa L.) seeds were sown in 3.5-inch pots containing culture medium (peat soil:vermiculite=1:1). Five (5) seeds were sown in one pot. Alfalfa plants were randomly divided into 6 groups, in which Groups 1 to 3 were not inoculated with Rhizobium, and Groups 4 to 6 were inoculated with Rhizobium. Rhizobium inoculation was the same as described in Example 2. After inoculation, the pots were placed in a phytotron, which was operated at 25/23° C. day/night temperature and on a 16/8 h light/dark cycle. Two (2) weeks after sowing (V2 stage), alfalfa plants were applied with the reagents listed in Table 6 once at a rate of 10 mL/12 pots using a foliar spray treatment. The reagents were applied once in total during the test period. [table] Twelve (12) days after the application of reagents, 4 alfalfa plants from each group (N=4) were randomly selected. The first to fifth trifoliate leaves of the selected plants were collected, air-dried at 50° C. overnight and then ground into powder. […] Average and standard error (SE) of each group were calculated.

The subject of test [2] is glutamate synthase (GOGAT). The experiment in a line: Example 3 activity of glutamate synthase (GOGAT) of alfalfa leaves. The conditions noted are these: 12 days after application; Groups 2-3 without, Groups 4-6 with Rhizobium. How it is done: as §1, with “third” for “first to fifth”, “collected to determine GOGAT activity by the following method. […] The GOGAT activity is determined by NADH reduction through measuring fluorescence intensity” for “collected, air-dried”, “excitation/emission wavelengths of 340/445 nm.” for “50° C. overnight and then ground into powder.”

The test system of test [3] is alfalfa plants. Put plainly: Example 3 efficacy test on alfalfa with or without Rhizobium inoculation: shoot weight, leaf area, root dry weight. The settings on record: Day 12 after foliar spray. How it is done:
Five (5) seeds were sown in one pot. Alfalfa plants were randomly divided into 6 groups, in which Groups 1 to 3 were not inoculated with Rhizobium, and Groups 4 to 6 were inoculated with Rhizobium. Rhizobium inoculation was the same as described in Example 2. After inoculation, the pots were placed in a phytotron, which was operated at 25/23° C. day/night temperature and on a 16/8 h light/dark cycle. Two (2) weeks after sowing (V2 stage), alfalfa plants were applied with the reagents listed in Table 6 once at a rate of 10 mL/12 pots using a foliar spray treatment. The reagents were applied once in total during the test period. [table] Twelve (12) days after the application of reagents, 12 alfalfa plants from each group (N=12) were randomly selected for phenotype observation, and the shoot fresh weight of the collected samples was measured. Then, the collected samples were dried at 50° C. overnight, and the shoot dry weight was measured. Twelve (12) days after the application of reagents, 6 alfalfa plants from each group (N=6) were randomly selected. All the trifoliate leaves of the selected plants were collected and numbered in sequence from bottom to top. The leaf area of all the trifoliate leaves of each alfalfa plant was measured by a leaf analyzer ([…]2400, Regent Instruments Inc.). Twelve (12) days after the application of reagents, 4 alfalfa plants from each group (N=4) were randomly selected. The collected samples were dried at 50° C. overnight, and then the root dry weight was measured. Average and standard error (SE) of each group were calculated.

The mark [4] stands for this setting: Groups 2-3 without, Groups 4-6 with Rhizobium.
The mark [5] stands for this setting: Groups 4-6 Rhizobium inoculated.
The mark [6] stands for this setting: Groups 4-6 Rhizobium inoculated, Group 1 no Rhizobium, no actives.

Take `NCCCC(=O)O` [Group 4, γ-aminobutyric acid (GABA)]: the “increase of nitrogen content in the leaves compared with Group 1” value with alfalfa plants [1] was 115.8%. Moreover, the “increase of GOGAT activity in the leaves compared with Group 1” value in test [2] came to 13.5%. Further, in the test on alfalfa plants [3] (setting [4]), the “Leaf Area, Sum of trifoliate leaves” value was found to be 6.27 cm^2/plant; the “Leaf Area, trifoliate leaf number 1” value is given as 0.90 cm^2/plant; the “Leaf Area, trifoliate leaf number 2” value turned out to be 1.03 cm^2/plant; the “Leaf Area, trifoliate leaf number 3” value is recorded as 1.01 cm^2/plant. In addition, in the test on alfalfa plants [3] (setting [4]), the “Leaf Area, trifoliate leaf number 4” value was 0.85 cm^2/plant; the “Leaf Area, trifoliate leaf number 5” value is given as 0.87 cm^2/plant; the “Leaf Area, trifoliate leaf number 6” value was found to be 0.93 cm^2/plant; the “Leaf Area, trifoliate leaf number 7” value was 0.52 cm^2/plant. Also, in the test with alfalfa plants [3] (setting [4]), the “Leaf Area, trifoliate leaf number 8” value is 0.17 cm^2/plant; the “Leaf Area, trifoliate leaf number 9” value stood at 0.00 cm^2/plant; the “increase of leaf area compared with Group 1” value amounted to 64%; the “root dry weights compared with Group 1” value was “higher”. In the test with alfalfa plants [3] (setting [5]), the “increase of trifoliate leaves compared with Group 1” value is listed as 2 trifoliate leaves and the “plant height compared with Group 1 (words, FIG. 12)” value is on record as “higher”. Also, in the test on alfalfa plants [3] (setting [6]), the “increase of shoot dry weight compared with Group 1” value amounted to 52.9% and the “increase of shoot fresh weight compared with Group 1” value is given as 66.5%.
